Structures are written as SMILES.

The test has as its target T1, PPH-5 (Caenorhabditis elegans, UniProt Q9NES8).
T1 construct: made in house
T1 sequence (Q9NES8 1-496): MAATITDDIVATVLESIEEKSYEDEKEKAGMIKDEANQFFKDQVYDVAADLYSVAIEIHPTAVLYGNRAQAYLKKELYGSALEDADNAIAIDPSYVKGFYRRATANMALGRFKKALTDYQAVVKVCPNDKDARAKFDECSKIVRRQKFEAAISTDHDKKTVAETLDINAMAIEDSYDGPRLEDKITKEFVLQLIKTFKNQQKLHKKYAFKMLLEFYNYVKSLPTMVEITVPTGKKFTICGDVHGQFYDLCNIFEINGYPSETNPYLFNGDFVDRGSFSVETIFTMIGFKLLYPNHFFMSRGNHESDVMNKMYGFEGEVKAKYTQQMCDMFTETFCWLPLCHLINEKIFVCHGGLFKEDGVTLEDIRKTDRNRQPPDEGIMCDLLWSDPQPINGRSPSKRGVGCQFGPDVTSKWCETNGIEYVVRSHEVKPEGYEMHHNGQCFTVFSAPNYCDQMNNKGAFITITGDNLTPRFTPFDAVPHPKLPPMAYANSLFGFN
In words: pNPP-based phosphatase assay with nematode PPH-5. The note with it: for Kd: apparent KD-value in the pNPP-based assay, 20 °C; for effect on the enzymatic activity of PPH-5 in the compound screen: initial screen of 15,000 compounds, pNPP, P5SAs at 50 ng/mL. The test is classed as biochemical, C. elegans. The procedure: At some instances, the present application refers to "measuring the enzymatic activity" of an enzyme. As used herein, this means that a measured value that is proportional to or reflects the enzymatic activity of that enzyme is measured. For example, the present application may refer to "measuring the enzymatic activity of protein phosphatase 5". Typically, this means that an in vitro reaction of protein phosphatase 5 with a suitable substrate is carried out.As the substrate para-nitrophenyl phosphate (pNPP) is used. The conditions for the phosphatase reaction are 40 mM HEPES/KOH, 20 mM KCl, 5 mM MnCl2, 1 mM DTT, pH 7.5. The reaction is carried out at 20° C. The starting concentration of pNPP is 60 mM. The concentration of the compound to be tested, if present, is in the range of 50-500 nM, preferably in the range of 100-250 nM, more preferably 50, 250 or 500 nM, more preferably 250 nM. As phosphatase, bacterially expressed and purified phosphatase is used. The concentration of the phosphatase in the reaction is 30 nM. The rate at which the dephosphorylation of this substrate proceeds is monitored, typically by measuring the rate of formation of the reaction product by spectroscopic measurements (dephosphorylation of pNPP, e.g., results in generation of p-nitrophenol, a chromogenic product with strong absorbance at about 410 nm (extinction coefficient ε = 15100 cm^-1M^-1), thus allowing to monitor generation of the reaction product by monitoring the absorbance at 410 nm). If the reaction is carried out in the presence of an excess of substrate, the initial velocity at which the reaction product is generated (i.e. the slope of the initial phase of the curve in a graph plotting the absorbance at 410 nm over time) is proportional to the enzymatic activity of protein phosphatase 5under the specific reaction conditions used. Alternatively, after starting the phosphatase reaction the reaction may be allowed to proceed for a defined incubation period (usually 30 minutes), then the reaction is stopped (for example by addition of a small volume of 1 M NaOH), and the absorbance at 410 nm is measured. Upon subtraction of the absorbance of a negative control (a reaction carried out with a non-functional, for example pre-boiled, phosphatase), the obtained value is proportional to the enzymatic activity of protein phosphatase 5 under the specific reaction conditions used (since the reaction is carried out in the presence of an excess of substrate and the incubation period is chosen such that the reaction is stopped while it is still in the quasi-linear Phase). Phosphatase activity was followed by the conversion of para-nitrophenyl phosphate (pNPP) to para-nitophenole and absorption of the product at 410 nm (ε: 15100 cm^-1 M^-1) in a Varian Cary 100 spectrophotometer (Agilent Technologies, Boeblingen, Germany). The reaction was measured in 40 mM HEPES/KOH, 20 mM KCl, 5 mM MnCl2, 1 mM DTT, pH 7.5 and 60 mM pNPP at 20 °C if not indicated otherwise. Phosphatase concentration ranged from 50 to 500 nM in the assay. If indicated, Hsp90/DAF-21 peptide was supplemented in the assay at a concentration of 60 μM. The protein phosphatase 5 is a highly regulated enzyme. The autoinhibition of the phosphatase is controlled by the N-terminal TPR domain and the C-terminal αJ helix, implying a complex mechanism to control the turnover rate (Yang et al., 2005). A compound screen was carried out to identify small molecules which can alter the activity of the phosphatase. The C. elegans homolog of protein phosphatase 5 was used (activity of nematode protein phosphatase 5 (PPH-5) at 20 °C: ∼0.62 sec^-1; mammalian PP5: ∼0.12 sec^-1). The homology between nematode PPH-5 and human PP5 is pronounced with a sequence conservation of almost 80% (Figure 6). Using the substrate para-nitrophenyl phosphate (pNPP), a library of 15,000 compounds was analyzed. […]

For `CNC(=O)c1c(NC(=O)COCC(=O)Nc2sc3c(c2C(=O)NC)CCC3)sc2c1CCC2` [P5SA-5], the Kd turned out to be 6.4 ± 1.8 µM and the “effect on the enzymatic activity of PPH-5 in the compound screen” value (from here on “effect on the enzymatic activity”) is “activating effect”. Besides, for the setting “60 µM MEEVD peptide, titration by phosphatase assay”, the “influence of MEEVD peptide on affinity to PPH-5” value is recorded as “minor influence”. Under “(sat.)”, this compound had a fold activation of 8.4 fold.

In the case of `O=c1cc2nc(-c3ccc(F)cc3)nc(SCc3ccc(Br)cc3)n2[nH]1` [P5SA-4], the Kd worked out at 25.7 ± 5.5 µM and the “effect on the enzymatic activity” value is “activating effect”. For the setting “(sat.)”, this compound returned a fold activation of 7.8 fold.

Take `FC(F)(F)c1c2c(nc3c(-c4ccc(Cl)cc4)cnn13)CCC2` [P5SA-1]: the Kd was 13.3 ± 4.2 µM and the “effect on the enzymatic activity” value was “activating effect”. Besides, the fold activation ((sat.)) was 3.7 fold.

On to `COc1ccc(-c2nc(Cc3ccc(Cl)cc3)no2)cc1OC` [P5SA-2], for which the Kd came to 7.8 ± 1.4 µM and the “effect on the enzymatic activity” value is “activating effect”. Also, the fold activation ((sat.)) is 9.6 fold.

In the case of `CN1CCc2c(sc(-n3cccc3)c2CNC(=O)NC23CC4CC(CC(C4)C2)C3)C1` [P5SA-3], the “effect on the enzymatic activity” value is given as “activating effect”. The fold activation (at 714 µM) amounted to 4.0 fold.

The values are drawn from patent publication EP2878677A1, “Activators of protein phosphatase 5” (Deutsches Zentrum für Neurodegenerative Erkrankungen e.V. …, priority 2013, dated 2015).
